Data on 13 compounds can be found in US20240400584A1, “COMPOUNDS AND METHODS FOR MODULATING SPLICING” (REMIX THERAPEUTICS INC., priority 2021, published 2024).

Structures are written as SMILES. Where only a bound is given, the exact number is not on record here.

Experiment [1] concerns HiBit-tagged Target C in K562 cells. As to the kind of experiment: HiBiT protein abundance assay, Target C. The following applies: HiBiT-modified K562 cells, 24 hours, luminescence. The class given is cell-based, human. A digest of the protocol: (§1)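 K562 lines carrying endogenous HiBiT-tagged targets were treated 24 h at 37 °C with compound (10-point 3-fold dilution, top 10 μM final, DMSO ≤0.25%). Abundance read by Nano-Glo HiBiT lytic luminescence against unmodified-cell and DMSO controls. IC50 interpolated at 50% response from a 4-parameter logistic fit.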

Experiment [2] concerns HiBit-tagged MYB in K562 cells. As to the kind of experiment: HiBiT protein abundance assay, MYB. The class given is cell-based, human. The following applies: HiBiT-modified K562 cells, 24 hours, luminescence. The method in brief:
as §1

For a further experiment, the system named is Target C. As to the kind of experiment: Gene panel canonical junction qPCR assay, Target C CJ mRNA (Table 7). The following applies: Homo sapiens, read-out: Target C CJ mRNA decrease IC50. The class given is cell-based, human. The method in brief: (§2)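 A673/K562 cells + cpd → lysate → cDNA → qPCR, CY5 5′ nuclease probe set overlapping canonical junction. Normalized to GAPDH/GUSB/PPIA and DMSO via ΔΔCt, RQ → % response over fixed ΔCt window. IC50 = 50% CJ decrease, 4PL fit.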

In experiment [3] the test system is HiBit-tagged HTT in K562 cells. The experiment is described as follows: HiBiT protein abundance assay, HTT. The format is cell-based, human. As to conditions: HiBiT-modified K562 cells, 24 hours, luminescence. A digest of the protocol: as §1
The next experiment has as its system MYB. The experiment is described as follows: Gene panel canonical junction qPCR assay, MYB CJ mRNA (Table 7). The class given is cell-based. As to conditions: Homo sapiens, read-out: MYB CJ mRNA decrease IC50. The method in brief: as §2

On to `CC1(C)CC(Nc2ccc3c(n2)OCc2cc(-n4cccn4)ccc2-3)CC(C)(C)N1` [Compound 165], for which the IC50 is 100 to 1000 nM in experiment [1]; 100 to 1000 nM in experiment [2]; 100 to 1000 nM with Target C; less than 100 nM in experiment [3]; 1000 to 10000 nM in the experiment with MYB.
Take `c1cnn(-c2ccc3c(c2)COc2nc(NC4CNC4)ccc2-3)c1` [Compound 166]: the IC50 in experiment [1] is greater than 10000 nM; in experiment [2], 1000 to 10000 nM; in the experiment with Target C it was greater than 10000 nM; in experiment [3], 1000 to 10000 nM; in the experiment on MYB, greater than 10000 nM.
Consider `Cc1cnc(-c2ccc3c(c2)COc2nc(N(C)[C@@H]4C[C@H]5CC[C@@H](C4)N5)ccc2-3)o1` [Compound 206], for which the IC50 in experiment [1] is 100 to 1000 nM; in experiment [2], 100 to 1000 nM; in the experiment on Target C, 1000 to 10000 nM; in experiment [3], less than 100 nM; in the experiment with MYB, 100 to 1000 nM.
As for `c1cc2c(cc1-c1cn[nH]c1)COc1nc(N3CCC34CCNC4)ccc1-2` (centres unmarked) [Compound 207], the IC50 in experiment [1] was 1000 to 10000 nM; in experiment [2], 1000 to 10000 nM; with Target C, greater than 10000 nM; in experiment [3], 1000 to 10000 nM; in the experiment on MYB it was 1000 to 10000 nM.
`Cc1ncc(-c2ccc3c(c2)COc2nc(O[C@@H]4C[C@H]5C[C@@H](C4)N5)ccc2-3)s1` [Compound 208]: the IC50 in experiment [1] was less than 100 nM; in experiment [2], 100 to 1000 nM; in the experiment on Target C it was 100 to 1000 nM; in experiment [3], less than 100 nM; in the experiment with MYB, 100 to 1000 nM.
Take `c1cc2c(cc1-c1cn[nH]c1)COc1nc(O[C@@H]3C[C@H]4CC[C@@H](C3)N4)ccc1-2` [Compound 218]: the IC50 in experiment [1] is 100 to 1000 nM; in experiment [2], less than 100 nM; in the experiment with Target C, 100 to 1000 nM; in experiment [3], 100 to 1000 nM; in the experiment on MYB, 100 to 1000 nM.
Regarding `COc1cc(-c2ccc3c(c2)COc2nc(N4CCC(NC5(C)CCC5)C4)ccc2-3)cnn1` (centres unmarked) [Compound 285, 1-[8-(6-methoxypyridazin-4-yl)-6H-isochromeno[3,4-b]pyridin-3-yl]-N-(1-methylcyclobutyl)pyrrolidin-3-amine], the IC50 (in experiment [1]; in experiment [2]; in the experiment on Target C; in experiment [3]; in the experiment on MYB) was 100 to 1000 nM each time.
For `CC(C)Oc1cnnc(-c2ccc3c(c2)COc2nc(N4CCC(NC(C)(C)C)C4)ccc2-3)c1` (centres unmarked) [Compound 286], the concentration for half-maximal inhibition (IC50) in experiment [1] was 1000 to 10000 nM; in experiment [2], 1000 to 10000 nM; with Target C, greater than 10000 nM; in experiment [3], 1000 to 10000 nM; with MYB it was greater than 10000 nM.
`COc1cc(-c2ccc3c(c2)COc2nc(N4CCN[C@@H](C)C4)ccc2-3)cnn1` [Compound 287]: the IC50 fell in the range of 100 to 1000 nM in experiment [1]; 100 to 1000 nM in experiment [2]; 1000 to 10000 nM in the experiment with Target C; 100 to 1000 nM in experiment [3]; 1000 to 10000 nM in the experiment on MYB.
For `COc1cc(-c2ccc3c(c2)COc2nc(O[C@@H]4C[C@H]5COC[C@@H](C4)N5)ccc2-3)cnn1` [Compound 290, (exo)-7-{[8-(6-methoxypyridazin-4-yl)-6H-isochromeno[3,4-b]pyridin-3-yl]oxy}-3-oxa-9-azabicyclo[3.3.1]nonane], the concentration for half-maximal inhibition (IC50) in experiment [1] is less than 100 nM; in experiment [2], 100 to 1000 nM; in the experiment with Target C, 100 to 1000 nM; in experiment [3], less than 100 nM; with MYB, 100 to 1000 nM.
For `COc1cc(-c2ccc3c(c2)COc2nc(N4CCC(N5CCCC5)C4)ccc2-3)cnn1` (centres unmarked) [Compound 305], the IC50 in experiment [1] lay in the range of 100 to 1000 nM; in experiment [2], 1000 to 10000 nM; in the experiment with Target C it was 1000 to 10000 nM; in experiment [3], 100 to 1000 nM; with MYB it was 1000 to 10000 nM.
On to `COc1cc(-c2ccc3c(c2)COc2nc(N4CCC(N(C)C)C4)ccc2-3)cnn1` (centres unmarked) [Compound 306, 1-[8-(6-methoxypyridazin-4-yl)-6H-isochromeno[3,4-b]pyridin-3-yl]-N,N-dimethylpyrrolidin-3-amine], for which the IC50 lay in the range of 100 to 1000 nM in experiment [1]; 1000 to 10000 nM in experiment [2]; 1000 to 10000 nM in the experiment on Target C; 100 to 1000 nM in experiment [3]; 1000 to 10000 nM in the experiment with MYB.
Consider `COc1cc(-c2ccc3c(c2)COc2nc(N4CCC(N(C)C5CCC5)C4)ccc2-3)cnn1` (centres unmarked) [Compound 307, N-cyclobutyl-1-[8-(6-methoxypyridazin-4-yl)-6H-isochromeno[3,4-b]pyridin-3-yl]-N-methylpyrrolidin-3-amine], for which the half-inhibitory concentration (IC50) in experiment [1] was 100 to 1000 nM; in experiment [2], 100 to 1000 nM; in the experiment with Target C, 100 to 1000 nM; in experiment [3] it was 100 to 1000 nM; in the experiment on MYB it was 1000 to 10000 nM.
